Laboratory results published in patent publication US20250176598A1, “AMIDE COMPOUNDS AND THEIR USE AS FLAVOR MODIFIERS” (Firmenich Incorporated, priority 2022, published 2025).

Target: T1, T1R umami taste receptor (Homo sapiens, UniProt Q7RTX0+Q7RTX1)
T1 sequence (Q7RTX1 21-841): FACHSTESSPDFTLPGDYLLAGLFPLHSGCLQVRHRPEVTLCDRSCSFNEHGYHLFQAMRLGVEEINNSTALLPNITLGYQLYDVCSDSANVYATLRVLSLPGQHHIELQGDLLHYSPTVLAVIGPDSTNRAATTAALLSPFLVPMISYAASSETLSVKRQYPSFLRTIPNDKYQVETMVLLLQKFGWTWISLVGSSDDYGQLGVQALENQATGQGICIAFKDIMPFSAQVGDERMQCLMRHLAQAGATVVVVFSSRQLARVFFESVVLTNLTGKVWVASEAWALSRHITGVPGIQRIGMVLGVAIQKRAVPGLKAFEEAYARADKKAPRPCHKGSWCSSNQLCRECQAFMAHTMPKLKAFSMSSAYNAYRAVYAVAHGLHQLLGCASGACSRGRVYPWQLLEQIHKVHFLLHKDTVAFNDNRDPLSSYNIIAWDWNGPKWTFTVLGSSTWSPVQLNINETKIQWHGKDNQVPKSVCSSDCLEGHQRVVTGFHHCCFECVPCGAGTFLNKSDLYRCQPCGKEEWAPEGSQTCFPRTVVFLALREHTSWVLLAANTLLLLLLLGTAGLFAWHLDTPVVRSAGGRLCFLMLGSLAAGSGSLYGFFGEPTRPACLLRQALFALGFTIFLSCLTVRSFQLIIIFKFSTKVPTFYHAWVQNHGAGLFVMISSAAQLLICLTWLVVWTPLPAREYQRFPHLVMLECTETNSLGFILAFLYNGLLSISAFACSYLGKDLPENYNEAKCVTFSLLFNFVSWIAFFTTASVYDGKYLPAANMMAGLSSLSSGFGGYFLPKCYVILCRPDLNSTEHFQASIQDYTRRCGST
T1 sequence (Q7RTX0 21-852): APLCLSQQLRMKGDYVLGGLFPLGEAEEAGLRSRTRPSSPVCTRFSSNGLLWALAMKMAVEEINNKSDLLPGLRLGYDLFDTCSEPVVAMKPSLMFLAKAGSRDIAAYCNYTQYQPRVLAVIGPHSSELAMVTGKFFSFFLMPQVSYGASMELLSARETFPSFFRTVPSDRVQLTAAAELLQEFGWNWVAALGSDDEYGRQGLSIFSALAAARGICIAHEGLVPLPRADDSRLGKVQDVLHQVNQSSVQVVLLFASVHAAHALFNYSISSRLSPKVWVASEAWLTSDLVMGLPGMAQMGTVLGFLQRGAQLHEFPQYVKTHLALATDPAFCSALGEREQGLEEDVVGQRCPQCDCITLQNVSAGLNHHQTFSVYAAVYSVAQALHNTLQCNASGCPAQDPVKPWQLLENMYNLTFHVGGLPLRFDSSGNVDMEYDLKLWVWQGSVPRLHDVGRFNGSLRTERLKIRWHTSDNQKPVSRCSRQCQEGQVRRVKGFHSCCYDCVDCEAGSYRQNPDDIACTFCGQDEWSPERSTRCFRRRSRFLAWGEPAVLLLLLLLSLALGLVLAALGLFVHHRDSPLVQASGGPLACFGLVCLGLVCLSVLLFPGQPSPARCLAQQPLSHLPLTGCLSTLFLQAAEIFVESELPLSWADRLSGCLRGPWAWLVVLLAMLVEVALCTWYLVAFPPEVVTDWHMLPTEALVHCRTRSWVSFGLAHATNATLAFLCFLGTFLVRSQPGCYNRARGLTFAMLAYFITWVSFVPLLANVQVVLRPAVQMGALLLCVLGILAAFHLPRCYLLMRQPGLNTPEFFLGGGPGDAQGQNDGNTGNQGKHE
Assay: in vitro cell-based assay, cells expressing the T1R umami taste receptor; enhancement of MSG
Details: for EC50: cells that express the T1R umami taste receptor, dose-binding curves; for MSG Enh. Ratio: MSG enhancement ratio at a particular concentration (concentration not given)
Protocol: Each of Compounds 101-145 was synthesized according to one of the general procedures set forth above in Examples 1 and Example 2. Thereafter, the compounds were tested in an in vitro cell-based assay having cells that express the T1R umami taste receptor. Dose-binding curves were recorded and the EC50 was determined for enhancement of MSG binding. Table 2 sets forth the calculated EC50 values for certain tested compounds as well as the MSG enhancement ratio at a particular concentration.

| EC50 [µM] | MSG Enh. Ratio | Structure (SMILES) |
| --- | --- | --- |
| > 50 | – | COc1ccc(/C=C/C(=O)N[C@H](C(=O)O)C(C)C)cc1 [Compound 136, (E)-(3-(4-methoxyphenyl)acryloyl)-L-valine] |
| 7.74 | 4.7 | COc1ccc(/C=C/C(=O)N[C@H](CC(C)C)C(=O)O)cc1 [Compound 137, (E)-(3-(4-methoxyphenyl)acryloyl)-D-leucine] |
| > 50 | 1.0 | COc1ccc(/C=C/C(=O)N[C@@H](CC(C)C)C(=O)O)cc1 [Compound 138, (E)-(3-(4-methoxyphenyl)acryloyl)-L-leucine] |
| > 50 | 1.5 | CC[C@H](C)[C@H](NC(=O)/C=C/c1ccc(OC)cc1)C(=O)O [Compound 139, ((E)-3-(4-methoxyphenyl)acryloyl)-L-isoleucine] |
| > 50 | 1.8 | COc1ccc(/C=C/C(=O)N[C@@H](Cc2ccc(OC)cc2)C(=O)O)cc1 [Compound 140, (S,E)-3-(4-methoxyphenyl)-2-(3-(4-methoxyphenyl)acrylamido)propanoic acid] |
| > 50 | 1.6 | COc1ccc(C[C@H](NC(=O)/C=C/c2ccc(OC)c(OC)c2)C(=O)O)cc1 [Compound 141, (S,E)-2-(3-(3,4-dimethoxyphenyl)acrylamido)-3-(4-methoxyphenyl)propanoic acid] |
| > 50 | 2.2 | COc1ccc(/C=C/C(=O)N[C@@H](CCC(=O)O)C(=O)O)cc1 [Compound 142, (E)-(3-(4-methoxyphenyl)acryloyl)-L-glutamic acid] |
| > 50 | 1.0 | COc1ccc(/C=C/C(=O)N[C@@H](CCC(=O)O)C(=O)O)cc1O [Compound 143, (E)-(3-(3-hydroxy-4-methoxyphenyl)acryloyl)-L-glutamic acid] |
| > 50 | – | COc1ccc(/C=C/C(=O)N[C@H](CCC(=O)O)C(=O)O)cc1O [Compound 144, (E)-(3-(3-hydroxy-4-methoxyphenyl)acryloyl)-D-glutamic acid] |
| > 50 | 1.0 | CC(C)/C=C/C(=O)N[C@@H](CCC(=O)O)C(=O)O [Compound 145, (E)-(4-methylpent-2-enoyl)-L-glutamic acid] |
